According to patent US6713505B2, “spla2 inhibitors” (Eli Lilly and Company, priority 2000, dated 2004):

biological target: T1, recombinant human secreted phospholipase A2 (Homo sapiens, UniProt P14555); experiment: chromogenic assay for inhibitors of recombinant human secreted phospholipase A2; assay type: biochemical; settings: diheptanoyl thio-PC substrate, pH 7.5, 40° C. for 30 minutes, absorbance at 405 nanometers, triplicate
T1 sequence (P14555 21-144): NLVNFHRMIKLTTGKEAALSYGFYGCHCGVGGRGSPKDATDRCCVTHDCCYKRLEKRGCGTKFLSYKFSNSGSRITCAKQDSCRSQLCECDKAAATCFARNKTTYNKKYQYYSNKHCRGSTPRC
Source text: The following chromogenic assay procedure was used to identify and evaluate inhibitors of recombinant human secreted phospholipase A2. The assay described herein has been adapted for high volume screening using 96 well microtiter plates. A general description of this assay method is found in the article, “Analysis of Human Synovial Fluid Phospholipase A2 on Short Chain Phosphatidylcholine-Mixed Micelles: Development of a Spectrophotometric Assay Suitable for a Microtiterplate Reader”, by Laure J. Reynolds, Lori L. Hughes, and Edward A Dennis, Analytical Biochemistry, 204, pp. 190-197, 1992 (the disclosure of which is incorporated herein by reference):
Adjust pH to 4.5 with acetic acid
DTNB—5,5′-dithiobis-2-nitrobenzoic acid
RACEMIC DIHEPTANOYL THIO—PC
racemic 1,2-bis(heptanoylthio)-1,2-dideoxy-sn-glycero-3-phosphorylcholine
TRITON X-100™ prepare at 6.249 mg/ml in reaction buffer to equal […].
A measured volume of racemic dipheptanoyl thio PC supplied in chloroform at a concentration of 100 mg/ml is taken to dryness and redissolved in 10 millimolar TRITON X-100™ nonionic detergent aqueous solution. Reaction Buffer is added to the solution, then DTNB to give the Reaction Mixture.
The reaction mixture thus obtained contains 1 mM diheptanoly thio-PC substrate, 0.29 mm Triton X-100™ detergent, and 0.12 mm DTMB in a buffered aqueous solution at pH 7.5.
1. Add 0.2 ml reaction mixture to all wells;
2. Add 10 ul test compound (or solvent blank) to appropriate wells, mix 20 seconds;
3. Add 50 nanograms of sPLA2 (10 microliters) to appropriate wells;
4. […]
5. Read absorbance of wells at 405 nanometers with an automatic plate reader.
Tests were done in triplicate. […] Compounds initially found to be active were re-assayed to confirm their activity and, if sufficiently active, IC50 values were determined. […] In all cases, % inhibition measured at 405 nanometers generated by enzyme reactions containing inhibitors relative to the uninhibited control reactions was determined. […] IC50 values were determined by plotting log concentration versus inhibition values in the range from 10-90% inhibition.

IC50	SMILES
64.8 µM	CCc1sc2cccc(OCC(=O)N[C@@H](CC(C)C)C(=O)OC)c2c1C(=O)C(N)=O [Example 2, 2(S)-[2-[(3-aminooxalyl-2-ethylbenzo [b]thiophen-4-yl)oxy]acetylamino]-4-methylpentanoic cid methylester]
10.6 µM	CCc1sc2cccc(OCC(=O)N[C@@H](CC(C)C)C(=O)O)c2c1C(=O)C(N)=O [Example 3, 2(S)-[2-[(3-aminooxalyl-2-ethylbenzo [b]thiophen-4-yl)oxy]acetylamino]-4-methylpentanoic acid]
1.41 µM	CCc1sc2cccc(OCC(=O)O)c2c1C(=O)C(N)=O [Example 1, (3-aminooxalyl-2-ethylbenzo[b]thiophen-4-yloxy)acetic acid]
